Experimental data from patent publication US10765639B2, “Nanocapsules, methods of manufacture and uses thereof” (ADISSEO FRANCE S.A.S., priority 2016, dated 2020).

Legend:
[1] = oral administration, native vitamin E; cited from earlier work
[2] = Bioavailability of TAC in vivo in roosters (plasma free tocopherol after force-feeding); design: species or system ISA Brown roosters; AUC 24 h (Room 1) / AUC 96 h (Room 1) / AUC 24 h (Room 2) / AUC 96 h (Room 2): concentration or dose not given beside the values; settings: for AUC 24 h (Room 1) / AUC 96 h (Room 1): Room 1, force-feeding; for AUC 24 h (Room 2) / AUC 96 h (Room 2): Room 2, force-feeding
Description: The experimental scheme is described in detail in Preveraud et al. 2015, British Poultry Science, 56: 1; 94-102.
Briefly, two rooms with 60 ISA Brown roosters are placed in individual cages. One week before assigning the treatments, the roosters are fed with a feed devoid of vitamin E.
The roosters (n=10 roosters per treatment) were force-fed with different TAC solutions in water.
Room 1: Dry nanocapsules C24 of example 1, • TOL and TAC, in the form of oil, as a blank
Room 2: C40 dry nanocapsules of example 1, • TOL and TAC, in the form of oil, as a blank.
After the force-feeding administration of the vitamin E products put in a capsule, blood samples were taken at 0, 6, 12, 24, 48 and 96 h post force-feeding. After centrifugation, the plasma is decanted and the free tocopherol is measured up by HPLC.

Row | Molecule | Bioavailability in animals when orally administered [1] | %/TAC 24 h (Room 1) ([2]; Room 1, 24 h, diffusion percentage relative to TAC) | %/TAC 96 h (Room 1) ([2]; Room 1, 96 h, diffusion percentage relative to TAC) | AUC 24 h (Room 1) [2] | AUC 96 h (Room 1) [2] | %/TAC 24 h (Room 2) ([2]; Room 2, 24 h, diffusion percentage relative to TAC) | %/TAC 96 h (Room 2) ([2]; Room 2, 96 h, diffusion percentage relative to TAC) | AUC 24 h (Room 2) [2] | AUC 96 h (Room 2) [2]
1 | tocopherol [TOL] | ≤ 50% | +49% | +100% | 307 µg/mL/h | 1193 µg/mL/h | +118% | +124% | 309 µg/mL/h | 320 µg/mL/h
2 | CC(=O)Oc1c(C)c(C)c2c(c1C)CCC(C)(CCC[C@H](C)CCC[C@H](C)CCCC(C)C)O2 (stereo partly drawn) [TAC, alpha-tocopherol acetate] |  |  |  | 206 µg/mL/h | 597 µg/mL/h |  |  | 142 µg/mL/h | 340 µg/mL/h
